Several values for one entry are separate records, joined by “and”; a condition that tells them apart may be missing. Equal entries are not always repeated. Where two headings read alike, the source gives them in different places.
Experiments:
[1] = test system: KYSE450TR cells; assay: MTT assay, taxol-resistant KYSE450TR; format: cell-based, human; details: for blank-corrected absorbance 490 nm relative to control (fraction) / inhibition (1 minus fraction of control): 450TR; for IC50: Homo sapiens, MTT
From the text: (§1) The human cancer cells (H1650, H1975, KYSE70, KYSE410 and KYSE450) were purchased from the Type Culture Collection of the Chinese Academy of Sciences (Shanghai, China). The human immortalized normal esophageal epithelial cell line SHEE was donated by Dr. Enmin Li from the Laboratory of Tumor Pathology (Shantou University Medical College, Shantou, Guangdong, China). Drug-resistant cells (H1650TR, H1975OR, KYSE70TR, KYSE410TR and KYSE450TR) were induced by China-US (Henan) Hormel Cancer Institute. The cellswere cultured in RPMI-1640 complete growth medium containing 100 U/mL penicillin-streptomycin and 10% FBS. Based on the above medium formula, 100 nm/L paclitaxel was added in taxol-resistant cells, 100 nm/L gefitinib was added in gefitinib-resistant cells. The cells were incubated at 37 °C in an atmosphere containing 5% of CO2. The compounds were dissolved in DMSO to make a 50 mM stock solution and were diluted to the concentration of working solutions with complete growth medium before administration.
(§2) Cells were seeded in 96-well plates with 2,200–2,500 cells/well in100 μL. One day after seeding, test compounds with the concentration between 0 and 50 μM were added with 0.1% DMSO as control. Five multiple wells for each concentration. […] The absorbance at 490 nm was measured using a microplate reader (Thermo).

[2] = test system: SHEE cells; assay: MTT assay, normal esophageal epithelial cell line SHEE; format: cell-based; details: Homo sapiens, 48 h, n = 5
How it was run: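 MTT read-out at 490 nm after 48 h treatment with 0–50 μM compound, applied one day after seeding 2,200–2,500 cells/well; five wells per concentration, 0.1% DMSO as control. Culture in RPMI-1640/10% FBS, with 100 nm/L paclitaxel kept in the taxol-resistant lines.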

[3] = test system: KYSE70TR cells; assay: MTT assay, taxol-resistant KYSE70TR; format: cell-based, human; details: for blank-corrected absorbance 490 nm relative to control (fraction) / inhibition (1 minus fraction of control): 70TR
From the text: as §1, §2

[4] = test system: KYSE410TR cells; assay: MTT assay, taxol-resistant KYSE410TR; format: cell-based, human; details: for blank-corrected absorbance 490 nm relative to control (fraction) / inhibition (1 minus fraction of control): 410TR
From the text: as §1, §2

[5] = biological target: T1, EGFR wild protein (H672-A1210) (Homo sapiens, UniProt P00533); assay: EGFR protein affinity determined with SPR; format: binding; details: immobilized wild-type EGFR
T1 construct: purchased Active MOTIF 31165
T1 sequence (P00533 672-1210): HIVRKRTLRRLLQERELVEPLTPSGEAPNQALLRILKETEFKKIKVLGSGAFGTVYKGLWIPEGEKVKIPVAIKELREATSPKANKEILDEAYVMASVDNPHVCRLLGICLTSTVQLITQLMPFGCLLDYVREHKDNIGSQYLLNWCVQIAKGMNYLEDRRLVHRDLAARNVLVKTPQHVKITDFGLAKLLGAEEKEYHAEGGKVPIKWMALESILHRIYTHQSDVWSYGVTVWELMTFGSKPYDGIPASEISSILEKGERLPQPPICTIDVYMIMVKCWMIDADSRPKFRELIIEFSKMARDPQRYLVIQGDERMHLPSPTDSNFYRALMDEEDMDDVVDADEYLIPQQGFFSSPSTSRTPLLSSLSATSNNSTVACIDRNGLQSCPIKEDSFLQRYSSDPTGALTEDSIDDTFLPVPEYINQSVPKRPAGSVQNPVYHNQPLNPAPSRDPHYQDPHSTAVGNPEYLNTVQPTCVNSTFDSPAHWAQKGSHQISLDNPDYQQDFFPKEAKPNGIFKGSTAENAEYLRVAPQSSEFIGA
Procedure: Firstly, EGFR protein (protein concentration : 0.468 μg/μL, Active MOTIF, cat: 31165, lot: 28215004) was covalently immobilized onto a CM5 sensor chip at densities of 2000 response units. […] During the drug-protein interaction, the change of the refractive index was measured in real-time which would allow the plotting of the results of interaction as response units versus time. The interaction results were analyzed under a BIA evaluation 3.0 software.

[6] = test system: KYSE410 cells; assay: MTT assay, KYSE410; format: cell-based, human; details: for IC50: Homo sapiens, KYSE-410
How it was run: (§3)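 Viability was assessed by MTT at 490 nm after two days of compound treatment (0–50 μM) in RPMI-1640 with 10% FBS.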

[7] = test system: H1650 cells; assay: MTT assay for cell proliferation and cytotoxicity, H1650; format: cell-based; details: Homo sapiens, NCI-H1650, 48 h, H1650, n = 5
How it was run: as §3

[8] = test system: H1975 cells; assay: MTT assay for cell proliferation and cytotoxicity, H1975; format: cell-based, human; details: Homo sapiens, NCI-H1975, 48 h, MTT, 48 h, H1975, n = 5; read-out: IC50 48 h H1975
How it was run: as §3

[9] = test system: KYSE450 cell-derived xenograft; assay: In vivo cell-derived xenograft (CDX) mouse model; set-up: species or system nu/nu nude mice
Procedure: Mice were housed under specific pathogen-free conditions. All animal experiments were approved by the Bioethics Committee of Zhengzhou University and followed the guidelines set by the Institutional Animal Care and Use Committee (CUHCI2019002, CUHCI2021001, and CUHCI2021005). To generate the cell-derived xenograft (CDX) mouse model, nu/nu nude mice (Vital River Labs., Beijing, China) were subcutaneously injected with 5 × 10^6 cells (KYSE450). […] Tumor volume was calculated as follows: length × width × height × 0.5. Tumor size and mice weight were measured every 2–3 days. Compounds were administered for 15 days. The tumors were extracted for weighting, immunohistochemistry and immunofluorescence studies.
Frozen sections were washed three times with PBS and incubated overnight at 4°C with Ki-67 antibody. The next day, sections were washed three times and incubated with secondary antibody in PBS. After several washes, slides were counterstained with DAPI (Solarbio). The sections were mounted on microscope and imaged using fluorescent microscopy (Nikon, Tokyo, Japan). Image-Pro Plus 6.0 was used to analyze the fluorescence intensity.
Histological sections were dewaxed, antigens were repaired and sealed with serum in sequence. Next, histological sections were incubated overnight with diluted primary antibodies (1 : 500 dilution), and the control specimens were treated with PBS. The sections were washed 3 times with PBS. Secondary antibody was added and the system was then placed at 37 °C for half an hour. The systems were washed 3 times with PBS. Color developing agent was added. After washing with water, the system was soaked in hematoxylin for 0.5 min for dyeing. The re-dyed slides were washed with water, and then dehydrated. Neutral gums were dropped on the side of the tissue. The slices were then covered with cover glass, sealed and placed in a ventilator for drying. Immunohistochemical staining analysis was then carried out with Image-Pro Plus 6.0.

[10] = nude mice, 50 mg/kg i.p. every day, 15 days, vs control group and icotinib group

Compound: FC(F)(F)c1ccc(-n2cc(-c3cccc(Nc4ncnc5cc6c(cc45)OCCOCCOCCO6)c3)nn2)cc1 [compound 3l]
- blank-corrected absorbance 490 nm relative to control (fraction) ([1]; concentration 4): 0.04737
- inhibition (1 minus fraction of control) ([1]; concentration 4): 0.9526
- blank-corrected absorbance 490 nm relative to control (fraction) ([1]; concentration 8): 0.04791
- inhibition (1 minus fraction of control) ([1]; concentration 8): 0.9521
- blank-corrected absorbance 490 nm relative to control (fraction) ([1]; concentration 16): 0.1075
- inhibition (1 minus fraction of control) ([1]; concentration 16): 0.8925
- IC50 ([1]; 450t (KYSE450TR), 490 nm, read-out: IC50): 2.1 µM
- IC50 ([1]; 48 h, taxol-resistant KYSE450TR, value in parentheses, read-out: IC50 48 h KYSE450TR (data in parentheses) (converted)): 8.59 µM
- IC50 [2]: 4.82 ± 0.23 µM
- blank-corrected absorbance 490 nm relative to control (fraction) ([3]; concentration 3): 0.722
- inhibition (1 minus fraction of control) ([3]; concentration 3): 0.278
- blank-corrected absorbance 490 nm relative to control (fraction) ([3]; concentration 6): 0.41
- inhibition (1 minus fraction of control) ([3]; concentration 6): 0.59
- blank-corrected absorbance 490 nm relative to control (fraction) ([3]; concentration 12): 0.2379
- inhibition (1 minus fraction of control) ([3]; concentration 12): 0.7621
- IC50 ([3]; Homo sapiens, MTT, 48 h, taxol-resistant KYSE70TR, value in parentheses, read-out: IC50 48 h KYSE70TR (data in parentheses) (converted)): 5.13 µM
- blank-corrected absorbance 490 nm relative to control (fraction) ([4]; concentration 4): 0.5568
- inhibition (1 minus fraction of control) ([4]; concentration 4): 0.4432
- blank-corrected absorbance 490 nm relative to control (fraction) ([4]; concentration 8): 0.3771
- inhibition (1 minus fraction of control) ([4]; concentration 8): 0.6229
- blank-corrected absorbance 490 nm relative to control (fraction) ([4]; concentration 16): 0.2345
- inhibition (1 minus fraction of control) ([4]; concentration 16): 0.7655
- IC50 ([4]; Homo sapiens, MTT, 48 h, taxol-resistant KYSE410TR, value in parentheses, read-out: IC50 48 h KYSE410TR (data in parentheses) (converted)): 5.3 µM
- Rmax(RU) [5]: 25.21 RU
- Kd ([5]; 25°C): 8.23 µM and 8.24 µM
- IC50 ([6]; KYSE410, MTT, 490 nm, read-out: IC50): 7 µM
- IC50 ([6]; MTT, 48 h, KYSE410, n = 5, read-out: IC50 48 h KYSE410): 5.94 ± 0.41 µM
- blank-corrected absorbance 490 nm relative to control (fraction) ([6]; KYSE410, concentration 3.5): 0.6286
- inhibition (1 minus fraction of control) ([6]; KYSE410, concentration 3.5): 0.3714
- blank-corrected absorbance 490 nm relative to control (fraction) ([6]; KYSE410, concentration 7): 0.487
- inhibition (1 minus fraction of control) ([6]; KYSE410, concentration 7): 0.513
- blank-corrected absorbance 490 nm relative to control (fraction) ([6]; KYSE410, concentration 14): 0.3214
- inhibition (1 minus fraction of control) ([6]; KYSE410, concentration 14): 0.6786
- IC50 [7]: 4.4 ± 0.32 µM
- IC50 [8]: 3.26 ± 0.26 µM
- expression of proliferation marker Ki-67 in tumor ([9]; 50 mg/kg i.p., immunofluorescence): decreased significantly
- expression of P-ERK (Tyr202/204) in tumor ([9]; 50 mg/kg i.p., immunohistochemistry): decreased significantly
- ESCC tumor volume [9, 10]: markedly reduced
- average tumor weight [9, 10]: markedly reduced
